According to paper PMC12207590, “Substrate Specificity of the Organic Cation Transporters MATE1 and MATE2K and Functional Overlap with OCT1 and OCT2” (Journal of Medicinal Chemistry, 2025):
Read-outs that look alike come from different tables or passages of the source.

What was measured:
MATE1 [1] = target: T1, MATE1 (Homo sapiens, UniProt Q96FL8); assay: Uptake ratio in MATE1-overexpressing HEK293 cells vs empty vector (2.5 μM, 1 min, HPLC-MS/MS); type: cell-based; conditions: for MATE1 ratio in this study: Table S1
T1 sequence (Q96FL8 1-570): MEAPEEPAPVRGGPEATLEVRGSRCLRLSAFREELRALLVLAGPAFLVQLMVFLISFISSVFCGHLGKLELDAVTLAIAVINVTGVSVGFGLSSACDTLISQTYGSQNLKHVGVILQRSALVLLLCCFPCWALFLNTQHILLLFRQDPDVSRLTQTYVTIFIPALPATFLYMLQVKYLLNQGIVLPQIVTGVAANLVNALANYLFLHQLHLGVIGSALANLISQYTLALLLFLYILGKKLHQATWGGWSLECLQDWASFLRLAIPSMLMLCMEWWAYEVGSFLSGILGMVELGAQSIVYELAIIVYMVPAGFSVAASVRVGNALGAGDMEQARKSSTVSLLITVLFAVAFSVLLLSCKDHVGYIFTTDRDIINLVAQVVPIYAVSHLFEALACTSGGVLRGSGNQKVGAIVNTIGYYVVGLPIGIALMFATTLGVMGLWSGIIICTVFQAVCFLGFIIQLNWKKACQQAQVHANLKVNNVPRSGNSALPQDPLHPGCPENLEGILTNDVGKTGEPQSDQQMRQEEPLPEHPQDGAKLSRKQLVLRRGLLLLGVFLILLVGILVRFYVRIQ

MATE2K [2] = target: T2, MATE2K (Homo sapiens, UniProt Q86VL8); assay: Uptake ratio in MATE2K-overexpressing HEK293 cells vs empty vector (2.5 μM, 1 min, HPLC-MS/MS); type: cell-based; conditions: for MATE2K ratio in this study: Table S1
hCMEC [3] = assay: TS DPH hCMEC (Table S2); type: cell-based, human; set-up: scale not given here
hCMEC [4] = assay: TS MDAI hCMEC (Table S2); type: cell-based, human; set-up: scale not given here
[5] = system: MATE1, MATE2K, OCT1, OCT2; assay: Substrate specificity and overlap among the four transporters (ratio cutoff 2); type: cell-based, human
MATE1 [6] = target: T1, MATE1; assay: Concentration-dependent uptake (Michaelis-Menten) via MATE1 in HEK293 cells; conditions: for Km: read-out: MATE1 KM
MATE2K [7] = target: T2, MATE2K; assay: Concentration-dependent uptake (Michaelis-Menten) via MATE2K in HEK293 cells; conditions: HEK293, 1 min, net uptake; for Km: read-out: MATE2K KM
[8] = human; cited from earlier work
[9] = fold uptake over empty vector, 2.5 μM, 1 min
[10] = uptake ratio MATE1-overexpressing vs empty-vector HEK293 cells, 2.5 μM, 1 min, mean
[11] = uptake ratio MATE2K-overexpressing vs empty-vector HEK293 cells, 2.5 μM, 1 min, mean

T2 sequence (Q86VL8 1-566 isoform Q86VL8-3): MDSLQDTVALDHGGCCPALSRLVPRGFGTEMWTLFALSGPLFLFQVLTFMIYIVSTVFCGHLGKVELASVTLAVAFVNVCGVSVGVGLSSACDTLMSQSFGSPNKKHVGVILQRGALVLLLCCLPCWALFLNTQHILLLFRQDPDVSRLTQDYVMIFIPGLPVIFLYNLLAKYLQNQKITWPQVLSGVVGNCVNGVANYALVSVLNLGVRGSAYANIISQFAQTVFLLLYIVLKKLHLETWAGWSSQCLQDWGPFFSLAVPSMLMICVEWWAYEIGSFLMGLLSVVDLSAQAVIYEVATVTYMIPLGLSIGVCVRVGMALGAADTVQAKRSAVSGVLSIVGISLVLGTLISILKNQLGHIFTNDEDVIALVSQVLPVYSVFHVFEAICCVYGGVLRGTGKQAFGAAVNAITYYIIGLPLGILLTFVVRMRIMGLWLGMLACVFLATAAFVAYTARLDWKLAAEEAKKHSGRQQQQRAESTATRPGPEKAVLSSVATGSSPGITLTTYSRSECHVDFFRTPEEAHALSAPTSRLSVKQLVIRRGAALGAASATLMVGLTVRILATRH

| Compound | MATE1 ratio (MATE1 [1]; [9]) | MATE2K ratio (MATE2K [2]; [9]) | TS DPH hCMEC (hCMEC [3]; Table S2) | TS MDAI hCMEC (hCMEC [4]; Table S2) | Substrate specificity among MATE1, MATE2K, OCT1, OCT2 ([5]; transport ratio cutoff of 2) | MATE1 Vmax (MATE1 [6]; HEK293, 1 min, net uptake) | Km (MATE1 [6]; HEK293, 1 min, net uptake) [µM] | MATE2K Vmax (MATE2K [7]) | also measured |
| --- | --- | --- | --- | --- | --- | --- | --- | --- | --- |
| C#CCN[C@@H]1CCc2ccccc21 [Rasagiline] | 1.18 | 2.16 | 0.54 | 0.51 | specific for only OCT2 and MATE2K | 194 pmol × mg protein^–1 × min^–1 | 167 | linear | MATE1 (MATE1 [1]; [10]): 1.18; MATE2 (MATE2K [2]; [11]): 2.16 |
| COc1ccc(OC)c(C(O)CNC(=O)CN)c1 (stereo not shown) [Midodrine] | 4.53 | 1.43 | 1.05 | 1.02 | MATE1 only | – | – | – | – |
| COc1ccc2c3c1O[C@H]1C(=O)CC[C@@]4(O)[C@@H](C2)NCC[C@]314 [Noroxycodone] | – | – | – | – | OCT1 only | – | – | – | MATE1 ratio (MATE1 [1]): 1.39; MATE2K ratio (MATE2K [2]): 1.13 |
| Nc1ccncc1N [Amifampridine] | 17.06 | 7.01 | – | – | – | – | – | – | MATE1 ratio (MATE1 [1]; fold uptake over empty vector, 2.5 μM, 1 min, listed as amifampridine): above 2; MATE1 (uptake ratio) (MATE1 [1]; mean ratio of uptake in MATE1-overexpressing HEK293 cells vs empty vector, 2.5 μM, 1 min): 17.06; MATE2 (uptake ratio) (MATE2K [2]; mean ratio of uptake in MATE2K-overexpressing HEK293 cells vs empty vector, 2.5 μM, 1 min): 7.01; eliminated unchanged via the kidneys [8]: more than 70% |
| CC(CCc1ccc(O)cc1)NCCc1ccc(O)c(O)c1 (stereo not shown) [Dobutamine] | 17.41 | 2.77 | 0.67 | 0.99 | – | 2586 pmol × mg protein^–1 × min^–1 | 88.6 | 493 pmol × mg protein^–1 × min^–1 | Km (MATE2K [7]): 86.4 µM |
| C[N@+]1(CC2CC2)CC[C@]23c4c5ccc(O)c4O[C@H]2C(=O)CC[C@@]3(O)[C@H]1C5 [Methylnaltrexone] | – | – | 1.11 | 0.84 | All four transporters | 55.8 pmol × mg protein^–1 × min^–1 | 17.9 | 41.6 pmol × mg protein^–1 × min^–1 | Km (MATE2K [7]): 86.8 µM |
| COCCn1c2c([n+](Cc3cnccn3)c1C)C(=O)c1ccccc1C2=O [Sepantronium] | – | – | – | – | – | – | 80.9 | 78.5 pmol × mg protein^–1 × min^–1 | MATE1 (MATE1 [1]): 6.15; MATE1 ratio (MATE1 [1]): 6.15; MATE2 (MATE2K [2]): 9.45; MATE2K ratio (MATE2K [2]): 9.45; TS DPH hCMEC (hCMEC [3]): 1.01; TS MDAI hCMEC (hCMEC [4]): 0.99; MATE1 Vmax (MATE1 [6]): 304 pmol × mg protein^–1 × min^–1; Km (MATE2K [7]): 8.54 µM |
| N=C(N)c1ccc2cc(OC(=O)c3ccc(N=C(N)N)cc3)ccc2c1 [Nafamostat] | – | – | – | – | MATE1 only | – | – | – | MATE1 ratio (MATE1 [1]): 5.45; MATE2K ratio (MATE2K [2]): 1.64 |
| thyrotropin-releasing hormone | – | – | – | – | no substrates of the four transporters | – | – | – | – |
| Cc1ncc(C[n+]2csc(CCO)c2C)c(N)n1 [Thiamine] | – | – | – | – | All four transporters | 599 pmol × mg protein^–1 × min^–1 | 17.2 | 109.2 pmol × mg protein^–1 × min^–1 | MATE1 ratio in this study (MATE1 [1]; 2.5 μM, 1 min): 33.42; MATE1 (MATE1 [1]; [10]): 33.42; MATE2K ratio in this study (MATE2K [2]; 2.5 μM, 1 min): 10.63; MATE2 (MATE2K [2]; [11]): 10.63; Km (MATE2K [7]): 17.3 µM |
| CCCCCCN [Hexylamine] | – | – | – | – | OCT1 only | – | – | – | MATE1 ratio (MATE1 [1]): 1.21; MATE2K ratio (MATE2K [2]): 1.08 |
| CC1(C)N=C(N)N=C(N)N1c1ccc(Cl)cc1 [Cycloguanil] | 21.02 | 10.75 | – | – | All four transporters | – | – | – | MATE1 ratio in this study (MATE1 [1]; 2.5 μM, 1 min): 21.02; MATE2K ratio in this study (MATE2K [2]; 2.5 μM, 1 min): 10.75 |
| CCOC(=O)C1(c2ccccc2)CCN(C)CC1 [Pethidine] | – | – | – | – | MATE2K only | – | – | – | – |
| C[C@H](CS)C(=O)N1CCC[C@H]1C(=O)O [Captopril] | – | – | – | – | – | – | – | – | Substrate specificity among MATE1, MATE2K, OCT1, OCT2 [5]: no substrates of the four transporters |
| Cc1c(N)c(=O)n(-c2ccccc2)n1C [4-Aminoantipyrine] | – | – | 1.09 | 1.01 | – | linear | – | linear | – |
